# In patent US11975005B2, “Treatment of respiratory diseases” (TIANLI BIOTECH PTY LTD, priority 2015, dated 2024):
# Legend:
# ALK5 = biological target: T1, ALK5 (Homo sapiens, UniProt P36897); experiment: ALK5 inhibition (IC50); assay type: biochemical
# T1 sequence (P36897 34-503): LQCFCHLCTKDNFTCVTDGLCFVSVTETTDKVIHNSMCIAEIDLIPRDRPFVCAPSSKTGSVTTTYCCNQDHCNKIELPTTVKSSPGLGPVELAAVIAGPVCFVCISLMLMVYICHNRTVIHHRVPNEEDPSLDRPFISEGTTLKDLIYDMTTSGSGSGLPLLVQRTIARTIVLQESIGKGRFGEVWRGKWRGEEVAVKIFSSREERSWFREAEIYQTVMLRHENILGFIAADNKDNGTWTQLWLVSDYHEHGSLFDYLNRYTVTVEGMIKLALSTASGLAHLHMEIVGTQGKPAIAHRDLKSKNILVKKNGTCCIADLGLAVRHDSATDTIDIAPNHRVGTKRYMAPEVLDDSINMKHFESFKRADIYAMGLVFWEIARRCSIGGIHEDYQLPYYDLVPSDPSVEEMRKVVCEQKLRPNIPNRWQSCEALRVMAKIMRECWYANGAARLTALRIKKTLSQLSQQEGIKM
# [1] = system: glucocorticoid response element (GRE) activity; experiment: GRE activity / GRE reporter in BEAS-2B cells; assay type: cell-based, human; details: for TGFβ1-induced suppression of the GRE activity stimulated by Dex (30 nM): PF670462 1 or 10 μM 30 min before TGFβ1 for 24 hours
# Description: Data are presented as the means and SEM of 3 independent experiments. *P<0.05, cf corresponding Dex 30 nM response.
# (§1) The methods used in Examples 1 to 5 (and 10, 19, 20) are similar to those reported in Salem et al 2012 (Br J Pharmacol. 166:2036-2048) and again in Keenan et al 2014 (Respiratory Research, e15:55) in which methods for cell culture, GRE assays and gene expression measurements are fully described. Additional methods for growth of respiratory syncytial virus (RSV) and rhinovirus (RV) are described in Collins et al 2007 (Respir Physiol Neurobiol. 2007 Jun. 15; 156(3):345-52.) and by Xatzipsalti and papdopoulos, 2007 (Contrib Microbiol. 2007; 14:33-41).
# [2] = system: GRE-dependent gene expression; experiment: Glucocorticoid-induced gene expression in BEAS-2B cells; assay type: cell-based, human
# From the text: as §1
# Data are presented as the means and SEM of 4 independent experiments. *P<0.05, cf corresponding Dex 30 nM response. […] Thus, TNFα contribution to glucocorticoid resistance, may be independent of TGFβ. The resistance is exemplified by the epithelial sodium channel alpha subunit SCNN1a which assembles into a Na channel that is thought to contribute to water reabsorption from the airspaces that are flooded during acute lung injury.
# TGFβ suppression ranged in magnitude amongst the genes selected for analysis. […] TGFβ and Dex synergise in increasing the expression of PAI-1 (FIG. 24B).
# [3] = system: primary human airway epithelial cells; experiment: Dex-induced gene expression in ALI-differentiated primary human airway epithelial cells; assay type: cell-based; details: 3 and 10 μM
# From the text: as §1
# These studies were undertaken in ALI-differentiated culture of primary human airway epithelial cells.
# RSV [4] = experiment: RSV infection in Balb/C mice, PF670462 on days 3, 4 and 5; assay type: in vivo
# GC responsive genes = experiment: Topical (intranasal) PF670462 in naïve Balb/c mice, lung gene expression; assay type: in vivo; details: naïve Balb/C female mice; PF670462 0.6 μg intranasal 4 and 24 hours before post mortem
# RSV [5] = experiment: 5 day model of RSV infection, treatments from day 1; assay type: in vivo, mice
# bleomycin-treated mice = system: bleomycin-treated mice
# From the text: Bleomycin is commonly used in mice to model pulmonary fibrosis. This anti-cancer agent is known to induce pulmonary fibrosis in a subset of patients. […] Eventually the intensity of the fibrosis declines but never fully resolves. Early treatment in the model (during the first 3 days) may influence the outcome via anti-inflammatory effects (Limjunyawong et al. (2014) Physiol Rep. 2(2): e00249). Delayed treatment is used to specifically examine impact on the fibrogenic process.
# GRE-regulated genes = experiment: PF670462 aerosol exposure of Balb/C mice, lung gene expression; assay type: in vivo; details: Balb/C female mice; aerosol 0.03-10 mg/ml, 7 min, 24 and 4 hours before harvest
# From the text: […] and GILZ are known to exert anti-inflammatory actions in by suppression of the master pro-inflammatory transcription factor, NFκB.
# RSV [6] = experiment: HDM allergen challenge with RSV infection in mice; assay type: in vivo; details: HDM allergen challenged mice infected with 2 million RSV virions 3 days prior to post mortem
# Description: The conduct of the house dust mite allergy model with RSV complication was conducted as described herein and using the approaches described in Fuchs and Braun 2008 (Curr Drug Targets. 2008 June; 9(6):495-502).
# [7] = BEAS-2B, Dex 100 nM, PF670462 1-10 μM prior incubation
# [8] = FIG. 6A, BEAS-2B, SB431542 1 μM, PF670462 10 μM
# [9] = Mock-treated mice, PF670462 ip, RT-qPCR
# [10] = female Balb/C mice inoculated with RSV, Dex 1 mg/kg (i.p.)/day from day 1, PF670462 30 mg/kg days 3, 4 and 5
# [11] = 3-day bleomycin, female mice, PF670462 30 mg/kg ip
# [12] = 14 days bleomycin, PF670462 30 mg/kg/day delayed until day 3
# [13] = 21 day bleomycin, female mice, PF670462 daily from day 8 until day 21
# [14] = 21 day bleomycin, female mice, PF670462 day 8 to 21
structure (smiles),measurement,setting,value
Nc1nccc(-c2c(-c3ccc(F)cc3)ncn2C2CCCCC2)n1 [PF670462],IC50,ALK5,1.16 µM
same,"maximum effect of the glucocorticoid (budesonide, dexamethasone 1-100 nM) on GRE reporter construct","[1]; BEAS 2B cells, PF670462 0.3-10 μM",concentration dependently increased
same,TGFβ1-induced suppression of the GRE activity stimulated by Dex (30 nM),[1]; BEAS-2B cells,concentration-dependently attenuated
same,TGFβ1-induced suppression of the GRE activity stimulated by Dex (30 nM),"[1]; BEAS-2B cells, listed as PF674062",prevents
same,impairment of Dexamethasone 30 nM GRE responses by Rhinovirus (RV16) infection,"[1]; BEAS-2B cells, RV16 0.1 or 1.0 MOI, SB431542 1 μM",prevented
same,"Suppression of glucocorticoid-induced GRE responses to Dex (30 nM) induced by the combination TNFα, IL-13 and IL-4","[1]; BEAS-2B cells, cytokines each at 1 or 10 ng/ml, PF670462 1 or 10 μM",attenuated
same,suppression of Dex (30 nM) gene expression response (SCNN1a) induced by IL-13/IL-4,"[2]; BEAS-2B cells, IL-13/IL-4 at 10 ng/ml, PF670462 1 or 10 μM, SB431542 1 μM",partially attenuated
same,RSV-induced impairment of Dexamethasone ZBTB16 gene expression responses,"[2]; BEAS-2B cells, RSV 0.1 or 1.0 MOI, pretreatment",prevented
same,impairment of Dexamethasone 30 nM GILZ gene expression responses by RV16 infection,"[2]; BEAS-2B cells, RV16 1.0 MOI, pretreatment",greatly diminished
same,"TGFβ1 induced suppression of gene expression responses to Dex (30 nM), exemplified by SCNN1a expression","[2]; BEAS-2B cells, TGFβ1 24 hours, PF670462 1 or 10 μM",concentration dependently attenuated
same,"suppression of Dex (30 nM) gene expression response (SCNN1a) induced by the combination TNFα, IL-13 and IL-4","[2]; BEAS-2B cells, each at 0.1 ng/ml, PF670462 1 or 10 μM, SB431542 1 μM",partially attenuated
same,TGFβ suppression of glucocorticoid-induced CDKN1C (p57kip2) expression,"[2]; BEAS-2B, Dex 100 nM, PF670462 1-10 μM",unaffected
same,TGFβ suppression of Dex-induced expression of FKBP5,[2]; [7],prevented
same,TGFβ suppression of Dex-induced expression of GILZ,[2]; [7],prevented
same,TGFβ suppression of Dex-induced expression of SCNNIA (ENaCα),[2]; [7],prevented
same,TGFβ suppression of Dex-induced expression of ZBTB16 (PLZF),[2]; [7],prevented
same,increase in expression of PAI-1 by TGFβ and Dex,"[2]; BEAS-2B, FIG. 24B, PF670462 1-10 μM",concentration-dependently reduced
same,levels of GILZ in RV infected cells,[2]; [8],increased
same,levels of GILZ in uninfected cells,[2]; [8],but not in uninfected cells
same,RV infection-induced decrease of Dex-induced GILZ expression,"[2]; FIG. 6B, BEAS-2B, SB431542 3 μM, PF670462 3 μM",prevented
same,TGFβ suppression of (Dex 30 nM)-induced expression of SCNNIA,[3],prevented
same,TGFβ suppression of (Dex 30 nM)-induced expression of ZBTB16,[3],prevented
same,expression of CXCL5,"RSV [4]; FIG. 8B, during RSV infection",no effect alone
same,expression of KC,"RSV [4]; FIG. 8B, during RSV infection",no effect alone
same,expression of TNFα,"RSV [4]; FIG. 8B, during RSV infection",no effect alone
same,"IFN expression (IFNα, IFNβ and IFNγ)","RSV [4]; FIG. 8C, RSV treated mice, bronchoalveolar lavage cells and lung tissue, PF670462 given with Dex",prevented
same,expression of GILZ in lung tissue,RSV [4]; [9],directly stimulates
same,expression of MKP1 in lung tissue,RSV [4]; [9],neither Dex nor PF670462 alone increased expression
same,expression of ZBTB16 in lung tissue,RSV [4]; [9],directly stimulates
same,bronchoalveolar lavage fluid (BALF) cellular content,RSV [4]; [10],no effect
same,bronchoalveolar lavage fluid (BALF) protein content,RSV [4]; [10],no effect
same,effect on the GC responsive genes in lung tissue,GC responsive genes,direct stimulatory effect
same,Levels of IFN β,RSV [5],enhanced
same,Levels of IFN λ 2,RSV [5],enhanced
same,Levels of IFN λ 3,RSV [5],enhanced
same,TNFα expression in BAL cells when added to Dex treatment,RSV [5],further effect
same,accumulation of inflammatory cells in the BAL fluid,RSV [5]; administered from day 1,reduced
same,TNFα expression levels in BAL cells,RSV [5]; agent alone,directly suppresses
same,Bleomycin induction of CTGF in lung tissue,bleomycin-treated mice; [11],significantly reduced
same,Bleomycin induction of Col1a in lung tissue,bleomycin-treated mice; [11],significantly reduced
same,Bleomycin induction of PAI-1 in lung tissue,bleomycin-treated mice; [11],significantly reduced
same,Bleomycin induction of TIMP1 in lung tissue,bleomycin-treated mice; [11],significantly reduced
same,BAL protein levels,"bleomycin-treated mice; 3-day bleomycin, female mice, PF670462 30 mg/kg ip once daily",significantly reduced
same,BAL cells (increase by bleomycin),"bleomycin-treated mice; 3-day bleomycin, male mice",but not in PF670462- or Dex-treated mice
same,"Col1A expression increased by bleomycin, lung tissue","bleomycin-treated mice; 3-day bleomycin, male mice",reduced
same,"Col3 expression increased by bleomycin, lung tissue","bleomycin-treated mice; 3-day bleomycin, male mice",reduced
same,"IL-6 increases in response to bleomycin, lung tissue","bleomycin-treated mice; 3-day bleomycin, male mice",reduced
same,"TIMP1 expression increased by bleomycin, lung tissue","bleomycin-treated mice; 3-day bleomycin, male mice",reduced
same,fibrogenesis / efficacy in the bleomycin model,"bleomycin-treated mice; 4 independent studies, 3 to 21 days, male and female mice, PF670462 30 mg/kg/day, ip",able to reduce fibrogenesis
same,accumulation of cells on the BAL fluid,bleomycin-treated mice; [12],significantly reduced
same,wet weight of the lung,bleomycin-treated mice; [12],significantly reduced
same,accumulation of cells in the BAL,bleomycin-treated mice; [13],significantly reduced
same,accumulation of protein in the BAL,bleomycin-treated mice; [13],significantly reduced
same,increase in lung wet weight,bleomycin-treated mice; [13],significantly reduced
same,expression of CTGF in the lung tissue,bleomycin-treated mice; [14],significantly reduced
same,expression of interleukin-6 (IL-6) in the lung tissue,bleomycin-treated mice; [14],significantly reduced
same,expression of plasminogen activation inhibitor-1 (PAI-1) in the lung tissue,bleomycin-treated mice; [14],significantly reduced
same,expression of glucocorticoid regulated gene GILZ in lung,"bleomycin-treated mice; 21 day experiment, equally in saline and bleomycin-treated mice",induced
same,lung expression of GILZ,GRE-regulated genes,dose-related increase
same,lung expression of ZBTB116,GRE-regulated genes,dose-related increase
same,BAL cell number,RSV [6],not significantly reduced
